These results are taken from patent US5776739A, “Process for producing disaccharides and novel disaccharides” (Kyowa Hakko Kogyo Co., Ltd., priority 1919, dated 1998).

Series [1] has as its system alkaline phosphatase. As to the kind of experiment: Residual alkaline phosphatase activity after repeated freezing and thawing (Test Example 3). It counts as biochemical, calf. Conditions: sugar 50 mM; frozen (dry ice/ethanol) and thawed 10 times. As to the method:
(§1) Each of the sample solutions (10 μl) was incubated at 37° C. in 2.0 ml of the reaction mixture consisting of 1M diethanol-amine buffer (pH 10.2), 0.2 mM magnesium chloride and 5 mM p-nitrophenyl phosphoric acid. Then, the enzyme activity was determined by the amount of p-nitrophenol produced therein, which was culculated on the basis of change in absorbance at 405 nm. The activity of each of the sample solutions immediately after the preparation was defined as 100%, and the residual activity in the stored sample solution was calculated.
(§2) A sample solution (unsupplemented) was prepared by diluting alkaline phosphatase with distilled water. Other sample solutions were prepared by adding, to the above solution, trehalose, maltose, glucosyl (α, 1-1)D-fucose or glucosyl (α, 1-4)L-fucose to the concentration of 50 mM. Each of the sample solutions was frozen by dry ice/ethanol and thawed at room temperature repeatedly 10 times in total. The activity of alkaline phosphatase in each of the sample solutions was determined in a manner similar to that employed in Test Example 1. The activity of each of the sample solutions immediately after the preparation was defined as 100%, and the residual activity in the frozen and thawed sample solution was calculated.

Series [2] concerns alkaline phosphatase. As to the kind of experiment: Residual alkaline phosphatase activity after storage in frozen form (Test Example 2). It counts as biochemical, calf. Conditions: sugar 50 mM; stored frozen at -20° C. for 6 days. As to the method:
as §1
A sample solution (unsupplemented) was prepared by diluting alkaline phosphatase with distilled water. Other sample solutions were prepared by adding, to the above solution, trehalose, maltose, glucosyl (α, 1-1)D-fucose or glucosyl (α, 1-4)L-fucose to the concentration of 50 mM. The sample solutions were stored in frozen form at -20° C. for 6 days. After thawing at room temperature, the activity of alkaline phosphatase in each of the sample solutions was determined in a manner similar to that employed in Test Example 1. The activity of each of the sample solutions immediately after preparation was defined as 100%, and the residual activity in the stored sample solution was calculated.

Series [3] deals with alkaline phosphatase. As to the kind of experiment: Residual alkaline phosphatase activity after storage as solution at room temperature (Test Example 1). It counts as biochemical, calf. Conditions: for effective as a stabilizer for alkaline phosphatase: overall conclusion from Test Examples 1-4; for Residual activity: sugar 50 mM, solution, room temperature (25° C.), 24 hours. On the procedure: A sample solution (unsupplemented) was prepared by diluting alkaline phosphatase (derived from calf small intestine, Boehringer Mannheim Biochemica) with distilled water. Other sample solutions were prepared by adding, to the above solution, trehalose, maltose, glucosyl (α, 1-1)D-fucose or glucosyl (α, 1-4)L-fucose to the concentration of 50 mM. The sample solutions were allowed to stand at room temperature (25° C.) for 24 hours, and the activity of alkaline phosphatase in each of the sample solutions was determined.
The activity of alkaline phosphatase was determined as follows.
as §1

Series [4] has as its system alkaline phosphatase. As to the kind of experiment: Residual alkaline phosphatase activity after storage as dried powder (Test Example 4). It counts as biochemical, calf. Conditions: sugar 50 mM; dry powder stored at 50° C. for 24 hours. On the procedure:
as §1
as §2, with “evaporated” for “frozen by dry ice/ethanol and thawed”, “to dryness using a vacuum pump to obtain dry powder, and the dry powder was stored at 50° C. for 24 hours.” for “repeatedly 10 times in total.”, “after” for “after the”, “stored” for “frozen and thawed”

For series [5] the following is noted: C. Colaco et al., Bio/Technology, 10, 1007-1011 (1992); cited from earlier work.

As for `C[C@H]1O[C@H](O[C@H]2O[C@H](CO)[C@@H](O)[C@H](O)[C@H]2O)[C@H](O)[C@@H](O)[C@H]1O` [Glucosyl (α, 1-1) D-fucose, glucosyl (α, 1-1)D-fucose], the Residual activity in the series with alkaline phosphatase [1] turned out to be 65.0%; with alkaline phosphatase [2], 36.3%; in the series on alkaline phosphatase [3] it was 21.8%; in the series on alkaline phosphatase [4], 62.5%. In addition, in the series on alkaline phosphatase [3], the “effective as a stabilizer for alkaline phosphatase” value (from here on “effective as a stabilizer”) is “effective as a stabilizer for alkaline phosphatase”.

As to `C[C@@H]1OC(O)[C@@H](O)[C@H](O)[C@@H]1O[C@H]1O[C@H](CO)[C@@H](O)[C@H](O)[C@H]1O` (stereo partly drawn) [Glucosyl (α, 1-4) L-fucose, glucosyl (α, 1-4)L-fucose], the Residual activity in the series on alkaline phosphatase [1] worked out at 106.0%; in the series on alkaline phosphatase [2] it was 76.0%; with alkaline phosphatase [3] it was 93.7%; with alkaline phosphatase [4], 83.0%. Also, the “effective as a stabilizer” value with alkaline phosphatase [3] is given as “effective as a stabilizer for alkaline phosphatase”.

On to `OC[C@H]1O[C@H](O[C@H]2[C@H](O)[C@@H](O)[C@H](O)O[C@@H]2CO)[C@H](O)[C@@H](O)[C@@H]1O` [Maltose, glucosyl(α,1-4)D-glucose], for which the Residual activity was 16.3% in the series on alkaline phosphatase [1], 20.0% in the series with alkaline phosphatase [2], 3.3% in the series with alkaline phosphatase [3] and 41.0% in the series with alkaline phosphatase [4]. Moreover, the “effective as a stabilizer” value in the series with alkaline phosphatase [3] is reported as “effective as a stabilizer for alkaline phosphatase”.

On to `OC[C@H]1O[C@H](O[C@H]2O[C@H](CO)[C@@H](O)[C@H](O)[C@H]2O)[C@H](O)[C@@H](O)[C@@H]1O` [Trehalose, glucosyl(α,1-1)D-glucose], for which the Residual activity with alkaline phosphatase [1] was found to be 21.6%; with alkaline phosphatase [2], 26.4%; with alkaline phosphatase [3], 9.4%; in the series on alkaline phosphatase [4] it was 55.0%. Also, the “enhance the stability of biopolymers such as enzyme proteins” value in series [5] is on record as “enhance the stability of biopolymers such as enzyme proteins”. Also, the “effective as a stabilizer” value with alkaline phosphatase [3] is listed as “effective as a stabilizer for alkaline phosphatase”.
